Measured values taken from ChEMBL document CHEMBL1149004, “Ficulinic acid A and B, two novel cytotoxic straight-chain acids from the sponge Ficulina ficus” (1986).
Converted amounts (≈) assume the structure as drawn. The source made the active and inactive calls. The calls are words filed in the database; no cut-off is given here.

How the values were obtained:
Walker 256 = experiment: Growth inhibition of rat Walker 256 cells; format: functional, cell-based
L1210 = experiment: Cytotoxicity against mouse L1210 cells assessed as inhibition of DNA synthesis by [3H]thymidine incorporation assay; format: functional; details: read-out: ID50 (the source's name)

Row | Compound | Activity (Walker 256) | IC50 (L1210) [µg/mL]
1 | CCCCC/C=C\CCC(=O)CCCCCCO | Active | –
2 | CCCCCCC/C=C/C(=O)CCCCCCCC(CCCCCCC)C(=O)O (stereo not drawn) [FICULINIC ACID A] | – | 10 (≈ 24.5 µM)
3 | CCCCCCC/C=C/C(=O)CCCCCCCCCC(CCCCCCC)C(=O)O (stereo not drawn) [FICULINIC ACID B] | – | 12 (≈ 27.5 µM)
